Legend:
Type in all cases: in vivo, rat
FOXM1 = experiment: Immunohistochemistry of FOXM1 in spinal cord; conditions: rats, FIG. 5C
Experimental: (§1) Animals and Drugs. This study was carried out in strict accordance with the recommendations in the Guide for the Care and Use of Laboratory Animals of the National Institutes of Health. All experiments were performed under the IUCAC approval of City of Hope. Animals were purchased from Jackson Laboratory (Bar Harbor, Main). For the pilot pharmacokinetic experiment, nine male Sprague Dawley rats (n=3) were administered 1, 10, or 100 mg/kg intraperitoneal injections thrice per week for four weeks. One hour following the final dose, blood and spinal fluid were collected and analyzed by mass spectrometry. […] Following a treatment period of 7 days, rats were euthanized and organs harvested, weighed and processed for quantitative RT-PCR.
Immunohistochemistry. […] A veterinary pathologist, blinded to the identity of the treatment groups, scored the spinal cord sections based on the intensity of FOXM1 expression, which was typically uniform across the entirety of a section, creating a scale ranging from 0-2 in both white matter and grey matter. […] As a secondary quantification method, Image J was used to determine pixel density of FOXM1 staining. […]
Intact and castrate cohorts were included as controls. […] As a secondary quantification method, Image J was used to determine pixel density of FOXM1 staining. […]

AR = experiment: Immunohistochemistry of AR in spinal cord and muscle tissue; conditions: rats, 100 mg/kg per day, four weeks
[1] = tested on: AR activity in spinal cord; experiment: RT-qPCR of androgen-regulated transcripts in spinal cord; conditions: rats, compared to control treatment, FIG. 5F
Experimental: as §1, with “spectrometry. For the efficacy experiment, rats were divided into 3 groups (n=7) as follows: intact, castrated, and thiostrepton.” for “spectrometry.”
qRT-PCR. The quantitative RT-PCR method has been described by Jones et al, ACS Chem Biol, 3(7):412-8 (2008). […] Differences between experimental (x) and control (y) samples were normalized to RPL19 transcript levels (androgen unresponsive) and determined with the following calculation: (2^(Ctsgene1-Ctygene1))/(2^(CtxRPL19-CtyRPL19)) One-way analysis of variance was applied to determine statistical significant among groups, where p<0.05 was considered significant. […]

With `C=C(NC(=O)C(=C)NC(=O)c1csc(C2=N[C@@H]3c4csc(n4)[C@H]4NC(=O)c5csc(n5)[C@H]([C@](C)(O)[C@@H](C)O)NC(=O)[C@H]5CSC(=N5)/C(=C/C)NC(=O)[C@H]([C@@H](C)O)NC(=O)c5csc(n5)[C@]3(CC2)NC(=O)[C@H](C)NC(=O)C(=C)NC(=O)[C@H](C)NC(=O)[C@H]([C@@H](C)CC)N[C@@H]2C=Cc3c([C@H](C)O)cc(nc3[C@H]2O)C(=O)O[C@@H]4C)n1)C(N)=O` [thiostrepton] the “expression of FOXM1 in the spinal cord, scored by veterinary pathologist” value (FOXM1; 100 mg/kg per day, four weeks, IP osmotic pumps) was “significantly reduced”, the “FOXM1 staining intensity, Image J pixel density” value (FOXM1; spinal cord, relative to untreated) was “lower intensity” and the “AR expression in striated muscle tissue nuclei (IHC)” value (AR) was “not affected”. The “AR levels in spinal cord neurons (IHC)” value (AR) was “not affected” and the “androgen-dependent gene transcript levels in spinal cord” value [1] was “decreases in three androgen-dependent genes”.

Source: US11167007B2, “FOXM1 modulators and uses thereof” (City of Hope, priority 2016, dated 2021)
